Reference: patent US20260226493A1, “HERBICIDE RESISTANT PLANTS” (SYNGENTA CROP PROTECTION AG, priority 2023, published 2026)

Experiments:
Experiment in all cases: BIO3-BIO1 mutant enzyme activity in the presence of herbicide, percentage inhibition (fluorometric DAPA assay)
Type in all cases: biochemical
Conditions in all cases: read-out: percentage inhibition
[1] = molecular target: T1, Arabidopsis thaliana BIO3-BIO1 (BioDA) mutants (Arabidopsis thaliana, UniProt B0F481, Y511P)
T1 construct: with the predicted N-terminal mitochondrial transit peptide removed; 6xHis-tag (N); thrombin cleavage site (N); made in house; host or cells: E. coli BL21 (DE3) bioA
In short: (§1)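 Percentage inhibition compares activity at one of three herbicide concentrations against DMSO, from o-phthalaldehyde-derivatised DAPA fluorescence (ex 410, em 470 nm). Purified N-His BIO3-BIO1 variants (50 nM, E. coli-expressed) saw herbicide 10 min at 20 °C in pH 8.6 EPPS buffer, then 20 μM KAPA plus 100 μM spermidine for 75 min at 20 °C.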

[2] = molecular target: T2, Arabidopsis thaliana BIO3-BIO1 (BioDA) mutants (Arabidopsis thaliana, UniProt B0F481, Y511E)
T2 construct: with the predicted N-terminal mitochondrial transit peptide removed; 6xHis-tag (N); thrombin cleavage site (N); made in house; host or cells: E. coli BL21 (DE3) bioA
In short: as §1

[3] = molecular target: T3, Arabidopsis thaliana BIO3-BIO1 (BioDA) mutants (Arabidopsis thaliana, UniProt B0F481, F348I)
T3 construct: with the predicted N-terminal mitochondrial transit peptide removed; 6xHis-tag (N); thrombin cleavage site (N); made in house; host or cells: E. coli BL21 (DE3) bioA
In short: as §1

[4] = molecular target: T4, Arabidopsis thaliana BIO3-BIO1 (BioDA) mutants (Arabidopsis thaliana, UniProt B0F481, Q350H)
T4 construct: with the predicted N-terminal mitochondrial transit peptide removed; 6xHis-tag (N); thrombin cleavage site (N); made in house; host or cells: E. coli BL21 (DE3) bioA
In short: as §1

[5] = molecular target: T5, Arabidopsis thaliana BIO3-BIO1 (BioDA) mutants (Arabidopsis thaliana, UniProt B0F481, T512D)
T5 construct: with the predicted N-terminal mitochondrial transit peptide removed; 6xHis-tag (N); thrombin cleavage site (N); made in house; host or cells: E. coli BL21 (DE3) bioA
In short: as §1

[6] = molecular target: T6, Arabidopsis thaliana BIO3-BIO1 (BioDA) mutants (Arabidopsis thaliana, UniProt B0F481, S704P)
T6 construct: with the predicted N-terminal mitochondrial transit peptide removed; 6xHis-tag (N); thrombin cleavage site (N); made in house; host or cells: E. coli BL21 (DE3) bioA
In short: as §1

[7] = molecular target: T7, Arabidopsis thaliana BIO3-BIO1 (BioDA) mutants (Arabidopsis thaliana, UniProt B0F481, A609T)
T7 construct: with the predicted N-terminal mitochondrial transit peptide removed; 6xHis-tag (N); thrombin cleavage site (N); made in house; host or cells: E. coli BL21 (DE3) bioA
In short: as §1

[8] = molecular target: T8, Arabidopsis thaliana BIO3-BIO1 (BioDA) mutants (Arabidopsis thaliana, UniProt B0F481, T512C)
T8 construct: with the predicted N-terminal mitochondrial transit peptide removed; 6xHis-tag (N); thrombin cleavage site (N); made in house; host or cells: E. coli BL21 (DE3) bioA
In short: as §1

[9] = molecular target: T9, Arabidopsis thaliana BIO3-BIO1 (BioDA) mutants (Arabidopsis thaliana, UniProt B0F481, A609C)
T9 construct: with the predicted N-terminal mitochondrial transit peptide removed; 6xHis-tag (N); thrombin cleavage site (N); made in house; host or cells: E. coli BL21 (DE3) bioA
In short: as §1

[10] = molecular target: T10, Arabidopsis thaliana BIO3-BIO1 (BioDA) mutants (Arabidopsis thaliana, UniProt B0F481, P421A)
T10 construct: with the predicted N-terminal mitochondrial transit peptide removed; 6xHis-tag (N); thrombin cleavage site (N); made in house; host or cells: E. coli BL21 (DE3) bioA
In short: as §1

[11] = molecular target: T11, Arabidopsis thaliana BIO3-BIO1 (BioDA) mutants (Arabidopsis thaliana, UniProt B0F481, L786S)
T11 construct: with the predicted N-terminal mitochondrial transit peptide removed; 6xHis-tag (N); thrombin cleavage site (N); made in house; host or cells: E. coli BL21 (DE3) bioA
In short: as §1

[12] = molecular target: T12, Arabidopsis thaliana BIO3-BIO1 (BioDA) mutants (Arabidopsis thaliana, UniProt B0F481, F348A)
T12 construct: with the predicted N-terminal mitochondrial transit peptide removed; 6xHis-tag (N); thrombin cleavage site (N); made in house; host or cells: E. coli BL21 (DE3) bioA
In short: as §1

T10 sequence (B0F481 23-833 P421A): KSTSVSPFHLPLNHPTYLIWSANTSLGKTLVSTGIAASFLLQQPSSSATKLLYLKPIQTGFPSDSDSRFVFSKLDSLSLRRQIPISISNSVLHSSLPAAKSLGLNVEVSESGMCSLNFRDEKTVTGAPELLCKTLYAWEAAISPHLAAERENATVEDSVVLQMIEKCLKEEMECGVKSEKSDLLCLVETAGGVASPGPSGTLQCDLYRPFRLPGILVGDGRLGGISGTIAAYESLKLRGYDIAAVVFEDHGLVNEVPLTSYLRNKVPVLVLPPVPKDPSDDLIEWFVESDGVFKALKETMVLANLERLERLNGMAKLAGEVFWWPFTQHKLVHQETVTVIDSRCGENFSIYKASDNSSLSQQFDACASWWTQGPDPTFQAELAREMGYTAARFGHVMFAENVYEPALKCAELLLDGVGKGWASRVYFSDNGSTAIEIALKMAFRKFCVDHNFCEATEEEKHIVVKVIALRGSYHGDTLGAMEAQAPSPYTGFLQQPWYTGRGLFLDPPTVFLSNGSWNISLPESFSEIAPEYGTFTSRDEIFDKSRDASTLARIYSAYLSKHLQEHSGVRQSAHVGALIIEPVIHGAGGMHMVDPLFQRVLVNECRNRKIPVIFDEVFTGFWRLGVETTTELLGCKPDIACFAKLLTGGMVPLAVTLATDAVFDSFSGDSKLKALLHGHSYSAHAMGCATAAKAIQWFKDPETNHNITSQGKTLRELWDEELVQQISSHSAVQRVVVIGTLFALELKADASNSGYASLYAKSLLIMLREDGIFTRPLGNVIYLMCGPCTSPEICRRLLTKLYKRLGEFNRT
T8 sequence (B0F481 23-833 T512C): as the sequence (B0F481 23-833 P421A) above, with A399P, T490C counted along it
T6 sequence (B0F481 23-833 S704P): as the sequence (B0F481 23-833 P421A) above, with A399P, S682P counted along it
T5 sequence (B0F481 23-833 T512D): as the sequence (B0F481 23-833 P421A) above, with A399P, T490D counted along it
T12 sequence (B0F481 23-833 F348A): as the sequence (B0F481 23-833 P421A) above, with F326A, A399P counted along it
T3 sequence (B0F481 23-833 F348I): as the sequence (B0F481 23-833 P421A) above, with F326I, A399P counted along it
T2 sequence (B0F481 23-833 Y511E): as the sequence (B0F481 23-833 P421A) above, with A399P, Y489E counted along it
T7 sequence (B0F481 23-833 A609T): as the sequence (B0F481 23-833 P421A) above, with A399P, A587T counted along it
T4 sequence (B0F481 23-833 Q350H): as the sequence (B0F481 23-833 P421A) above, with Q328H, A399P counted along it
T9 sequence (B0F481 23-833 A609C): as the sequence (B0F481 23-833 P421A) above, with A399P, A587C counted along it
T11 sequence (B0F481 23-833 L786S): as the sequence (B0F481 23-833 P421A) above, with A399P, L764S counted along it
T1 sequence (B0F481 23-833 Y511P): as the sequence (B0F481 23-833 P421A) above, with A399P, Y489P counted along it

CCOC(=O)c1nn(-c2ccc3c(c2)OC(F)(F)C(F)(F)O3)c2cccc(C(C)=O)c2c1=O [Compound A, ethyl 5-acetyl-4-oxo-1-(2,2,3,3-tetrafluoro-1,4-benzodioxin-6-yl)cinnoline-3-carboxylate]
inhibition at 1 µM [1]: 28% | inhibition at 1 µM [2]: 0% | inhibition at 1 µM [3]: 7% | inhibition at 1 µM [4]: 23% | inhibition at 1 µM [5]: 33% | inhibition at 1 µM [6]: 56% | inhibition at 1 µM [7]: 0% | inhibition at 1 µM [8]: 50% | inhibition at 1 µM [9]: 18% | inhibition at 1 µM [10]: 0% | inhibition at 1 µM [11]: 80% | inhibition at 1 µM [12]: 4%

CCn1c(C)c(-c2ccc(F)cc2F)c(=O)c(C(=O)O)c1-c1ccc(Cl)c(Cl)c1 [Compound C, 2-(3,4-dichlorophenyl)-5-(2,4-difluorophenyl)-1-ethyl-6-methyl-4-oxo-pyridine-3-carboxylic acid]
inhibition at 0.2 µM [1]: 53% | inhibition at 1 µM [1]: 95% | inhibition at 5 µM [1]: 99% | inhibition at 0.2 µM [2]: 27% | inhibition at 1 µM [2]: 74% | inhibition at 5 µM [2]: 96% | inhibition at 0.2 µM [3]: 6% | inhibition at 1 µM [3]: 11% | inhibition at 5 µM [3]: 49% | inhibition at 0.2 µM [4]: 0% | inhibition at 1 µM [4]: 2% | inhibition at 5 µM [4]: 25% | inhibition at 0.2 µM [5]: 79% | inhibition at 1 µM [5]: 95% | inhibition at 5 µM [5]: 97% | inhibition at 0.2 µM [6]: 1% | inhibition at 1 µM [6]: 23% | inhibition at 5 µM [6]: 60% | inhibition at 0.2 µM [7]: 12% | inhibition at 1 µM [7]: 37% | inhibition at 5 µM [7]: 64% | inhibition at 0.2 µM [8]: 22% | inhibition at 1 µM [8]: 83% | inhibition at 5 µM [8]: 97% | inhibition at 0.2 µM [9]: 29% | inhibition at 1 µM [9]: 73% | inhibition at 5 µM [9]: 94% | inhibition at 0.2 µM [10]: 16% | inhibition at 1 µM [10]: 16% | inhibition at 5 µM [10]: 35% | inhibition at 0.2 µM [11]: 26% | inhibition at 1 µM [11]: 84% | inhibition at 5 µM [11]: 98% | inhibition at 0.2 µM [12]: 7% | inhibition at 1 µM [12]: 0% | inhibition at 5 µM [12]: 1%

CCn1c(Cn2ccc(C(F)(F)F)n2)cc(=O)c(C(=O)O)c1-c1ccc(Cl)c(Cl)c1 [Compound L, 2-(3,4-dichlorophenyl)-1-ethyl-4-oxo-6-[[3-(trifluoromethyl)pyrazol-1-yl]methyl]pyridine-3-carboxylic acid]
inhibition at 0.01 µM [3]: 1% | inhibition at 0.075 µM [3]: 3% | inhibition at 0.5 µM [3]: 14% | inhibition at 0.01 µM [4]: 0% | inhibition at 0.075 µM [4]: 16% | inhibition at 0.5 µM [4]: 38% | inhibition at 0.01 µM [7]: 10% | inhibition at 0.075 µM [7]: 34% | inhibition at 0.5 µM [7]: 12% | inhibition at 0.01 µM [9]: 4% | inhibition at 0.075 µM [9]: 22% | inhibition at 0.5 µM [9]: 30% | inhibition at 0.01 µM [10]: 15% | inhibition at 0.075 µM [10]: 16% | inhibition at 0.5 µM [10]: 21% | inhibition at 0.01 µM [11]: 11% | inhibition at 0.075 µM [11]: 31% | inhibition at 0.5 µM [11]: 93% | inhibition at 0.01 µM [12]: 1% | inhibition at 0.075 µM [12]: 0% | inhibition at 0.5 µM [12]: 3%

CCn1c(-c2ccc(Cl)c(Cl)c2)c(C(=O)O)c(=O)c2cc(F)ccc21 [Compound M, 2-(3,4-dichlorophenyl)-1-ethyl-6-fluoro-4-oxo-quinoline-3-carboxylic acid]
inhibition at 0.2 µM [1]: 48% | inhibition at 1 µM [1]: 89% | inhibition at 5 µM [1]: 98% | inhibition at 0.2 µM [2]: 29% | inhibition at 1 µM [2]: 74% | inhibition at 5 µM [2]: 95% | inhibition at 0.2 µM [3]: 0% | inhibition at 1 µM [3]: 6% | inhibition at 5 µM [3]: 25% | inhibition at 0.2 µM [4]: 0% | inhibition at 1 µM [4]: 8% | inhibition at 5 µM [4]: 20% | inhibition at 0.2 µM [5]: 59% | inhibition at 1 µM [5]: 86% | inhibition at 5 µM [5]: 96% | inhibition at 0.2 µM [6]: 0% | inhibition at 1 µM [6]: 16% | inhibition at 5 µM [6]: 47% | inhibition at 0.2 µM [7]: 8% | inhibition at 1 µM [7]: 39% | inhibition at 5 µM [7]: 67% | inhibition at 0.2 µM [8]: 27% | inhibition at 1 µM [8]: 79% | inhibition at 5 µM [8]: 95% | inhibition at 0.2 µM [9]: 10% | inhibition at 1 µM [9]: 47% | inhibition at 5 µM [9]: 78% | inhibition at 0.2 µM [10]: 15% | inhibition at 1 µM [10]: 11% | inhibition at 5 µM [10]: 17% | inhibition at 0.2 µM [11]: 33% | inhibition at 1 µM [11]: 81% | inhibition at 5 µM [11]: 97% | inhibition at 0.2 µM [12]: 0% | inhibition at 1 µM [12]: 0% | inhibition at 5 µM [12]: 6%
